Results: patent US20070112018A1, “Treatment of peripheral arterial occlusive disease” (priority 2005, published 2007)

Assays:
[1] = in vivo; cited from earlier work
[2] = male, human, in vivo
Protocol: In another study, three dose levels of rifalazil were administered for the treatment of non-gonococcal urethritis in 170 male patients. Doses used were in this study were single-doses of 2.5, 12.5 mg and 25 mg. Males were between 18-45 years of age with signs or symptoms of urethritis, including urethral discharge.

[3] = 300 mg, 3 days, 2 years of follow-up; cited from earlier work
[4] = system: C. pneumoniae; assay: Rabbit model of atherosclerosis accelerated by C. pneumoniae infection, cholesterol diet; conditions: C. pneumoniae-infected rabbits; rifalazil 5 mg/kg or azithromycin 30 mg/kg PO daily 1 week then twice weekly 6 weeks; 19 weeks after beginning treatment
Protocol: Thirty received three separate C. pneumoniae inoculations performed at 3-week intervals. Similarly, 15 control rabbits were intranasally inoculated with 1 mL of normal saline under the same conditions.
Nineteen weeks after beginning antibiotic treatment, the rabbits were euthanized. After euthanasia, hearts were examined histologically and by immunofluorescence. Animal serum samples were also examined for seropositivity to the infecting organism.

[5] = system: C. pneumoniae; conditions: cited from earlier work

Row | SMILES | t1/2 [1] | incidence of AEs considered possibly related to study drug [2] | incidence of clinically significant laboratory abnormalities [2] | morbidity or mortality in PAOD patients [3] | Plaque Area Stenosis (%) [4] | prevention of progression of lower limb atherosclerosis ([5]; daily for 28 days, C. pneumoniae seropositive men, almost 3 years) | number of invasive revascularization procedures ([5]; daily for 28 days) | soft plaque components in carotid arteries ([5]; over a 6-month period)
1 | CN[C@H]1C(=O)N[C@@H]2Cc3ccc(cc3)Oc3cc4cc(c3O[C@@H]3O[C@H](C(=O)O)[C@@H](O)[C@H](O)[C@H]3NC(=O)CCCCCCCCC(C)C)Oc3ccc(cc3Cl)[C@@H](O)[C@@H]3NC(=O)[C@H](NC(=O)[C@@H]4NC(=O)[C@@H](NC2=O)c2cc(cc(O)c2Cl)Oc2cc1ccc2O)c1ccc(O)c(c1)-c1c(O[C@H]2O[C@H](CO)[C@@H](O)[C@H](O)[C@@H]2O)cc(O)cc1[C@@H](C(=O)NCCCN(C)C)NC3=O [Dalbavancin] | approximately 180 hours |  |  |  |  |  |  | 
2 | CC[C@H]1OC(=O)[C@H](C)[C@@H](O[C@H]2C[C@@](C)(OC)[C@@H](O)[C@H](C)O2)[C@H](C)[C@@H](O[C@@H]2O[C@H](C)C[C@H](N(C)C)[C@H]2O)[C@](C)(O)C[C@@H](C)CN(C)[C@H](C)[C@@H](O)[C@]1(C)O [azithromycin] | 65 h | 24% | 21% | no significant reduction of morbidity or mortality | 30.2% |  |  | 
3 | CC[C@H]1OC(=O)[C@H](C)[C@@H](O[C@H]2C[C@@](C)(OC)[C@@H](O)[C@H](C)O2)[C@H](C)[C@@H](O[C@@H]2O[C@H](C)C[C@H](N(C)C)[C@H]2O)[C@](C)(O)C[C@@H](C)/C(=N\OCOCCOC)[C@H](C)[C@@H](O)[C@]1(C)O [roxithromycin] |  |  |  |  |  | statistically significant benefit | reduced the number of invasive revascularization procedures | statistically significant reduction of soft plaque components
